{
  "source": "patent US11629175B2",
  "about": "“Method for preparing PHFS-like Tau aggregates” (ECOLE POLYTECHNIQUE FEDERALE DE LAUSANNE (EPFL), priority 2018, dated 2023)",
  "key": {"monomeric Tau 4R2N [1]": {"biological_target": "T1, monomeric Tau 4R2N (Homo sapiens, UniProt P10636)", "T1 construct": "made in house; host or cells: E. coli (pET-28a(+))", "T1 sequence (P10636 1-441 isoform P10636-8)": "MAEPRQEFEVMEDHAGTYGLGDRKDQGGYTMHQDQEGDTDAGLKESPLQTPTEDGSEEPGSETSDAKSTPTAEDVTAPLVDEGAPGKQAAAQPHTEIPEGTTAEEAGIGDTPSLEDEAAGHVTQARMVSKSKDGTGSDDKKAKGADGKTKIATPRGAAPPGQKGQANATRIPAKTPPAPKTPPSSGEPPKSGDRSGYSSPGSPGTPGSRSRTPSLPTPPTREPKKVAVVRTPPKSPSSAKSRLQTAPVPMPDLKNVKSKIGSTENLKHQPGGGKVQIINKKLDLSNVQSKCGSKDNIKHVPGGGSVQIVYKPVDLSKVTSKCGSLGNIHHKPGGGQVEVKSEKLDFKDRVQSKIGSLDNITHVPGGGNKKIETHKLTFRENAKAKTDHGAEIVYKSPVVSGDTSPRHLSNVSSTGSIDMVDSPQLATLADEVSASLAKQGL", "test": "Seeding of monomeric Tau with R2 or R2-derived peptide seeds, EM", "format": "biochemical", "settings": "37° C.; for seeding of monomeric Tau / formation of rPHFs (EM): 10 μM sonicated peptide fibrils + 10 μM monomeric Tau", "protocol": "The seeding of Tau 4R2N (SEQ ID No: 5) by R2 was performed in presence of 10 μM of sonicated peptide fibrils, added to 10 μM of the monomeric soluble Tau, at 37° C. under stagnant conditions. It was observed that R2 is capable of seeding the aggregation of full length Tau (FIG. 3).\nHaving determined which of the R2-derived peptides are capable of aggregation and characterized their aggregation kinetics and fibril morphology, it was next investigated whether some of the R2-derived peptides could induce the seeding of Tau and K18, and whether it would lead to the formation of rPHFs fibrils. In order to reach this goal, fibrils of the peptides that were able to aggregate (R2 dC5, dC9, dC10, dC15 K6N and dPHF6*) were sonicated and added to monomeric Tau or K18 at molar ratios of 10 μM: 10 μM (i.e. under the same experimental conditions as those leading to R2-seeding of Tau and K18).\nUnless stated otherwise, 100 μM R2 or R2-derived peptide were dissolved in 10 mM phosphate, 50 mM NaF, 0.5 mM DTT and pH-adjusted to 7.4. The solution was then vortexed and the supernatant was incubated in presence of heparin sodium salt at molar ratio 1:4 (heparin:peptide) (Applichem GmbH) at 37° C., either with or without constant orbital agitation (1000 rpm, Peqlab, Thriller).\nThe obtained seeds were added at a final concentration of 10 μM to 10 μM of monomeric Tau or K18 in 10 mM phosphate, 50 mM NaF, 0.5 mM DTT and incubated 37° C."}, "monomeric Tau 4R2N [2]": {"biological_target": "T1, monomeric Tau 4R2N", "test": "R2-seeded Tau aggregation with commercially available inhibitors, ThS fluorescence and EM", "format": "biochemical", "settings": "Tau 4R2N 5 μM + R2 seeds 5 μM; inhibitor 1, 10, 100 μM; end timepoint ThS", "protocol": "The aggregation kinetic is followed using ThS fluorescence. a. The list and structure of the 5 inhibitors used in this proof of concept assay. b. As an example, the full kinetic of Tau incubated in presence of R2 seed with LMTX at 1 μM (orange), 10 μM (grey) or 100 μM (yellow) or in absence of inhibitor (blue). c. End timepoint ThS value of Tau incubated in presence of R2 with the five selected inhibitors at 1 μM (orange), 10 μM (grey) or 100 μM (yellow) or in absence of inhibitor (blue). The inhibition is dose-dependent, the inhibitors show various inhibition potencies (e.g. low for BSc3094, high for LMTX). […] Corresponding EM micrographs confirm the absence of significant fibrilization in the presence of most inhibitors. The presence of oligomeric species corroborate the hypothesis that Tau is locked in OFF-pathway conformations. The scale bars are 500 [nm].\nTo do so, R2 seeds were incubated with monomeric Tau protein in presence or absence of a set commercially available know Tau aggregation inhibitors (ATPZ, LMTX, Pyrochatecol violet, BSc3094 and myricetin, FIG. 18 a) at three different conventions (1 μM, 10 μM and 100 μM). The aggregation kinetic was followed using ThS fluorescence. As an example, the full kinetic of Tau incubated in presence of R2 seed, with LMTX at the three different concentration is presented in FIG. 18 b. […]"}, "[3]": {"tested_on": "hippocampal rat primary neurons", "test": "Immunocytochemistry (ThS) in transfected rat primary hippocampal neurons", "format": "cell-based", "settings": "1 μM, 3 days", "protocol": "Next, the findings of the present invention were validated using a cellular model, the hippocampal rat primary neurons. Primary neurons were transfected with full length Tau and K18 ΔK280, and cells were treated with R2, R2-seeded Tau or R2-seeded K18 at a concentration of 1 μM, […]. After 3 days, the coverslips were processed for ICC. […] Although the intracellular ThS signal is relatively high, it is difficult to distinguish between uptake of exogenous material and seeding of endogenous and/or overexpressed Tau/K18 ΔK280, especially since the concentration used here is relatively high (1 μM).\nHippocampi from PO WT rat (OFA SD, Charles River) were dissociated and triturated in papain-containing medium. After centrifugation at 400 g for 2 min, neurons were plated in MEM supplemented with 10% fetal calf serum (FCS) on Cultrex™ poly-L-lysine (Trevigen)-coated coverslips at 1.5×10^5 cells/ml (6 well-plates, 3 ml per well). After 4 h, medium was replaced with Neurobasal/B27 medium. Viral infections were performed two weeks, and transfection one week after plating.\nOne week old hippocampal rat primary neurons seeded on coverslips coated with Cultrex poly-L-lysine were transfected with Tau or K18 ΔK280 ([…]) using lipofectamine 2000 reagent (Invitrogen). 24 h after transfection, cells were treated with 1 μM monomeric R2, R2 seeds, R2-seeded Tau, R2-seeded K18 and further incubated for 1 or 3 days. Cells were then fixed in 100% methanol at −20° C. for 10 min and rinsed three times in PBS. After blocking with 3% BSA in PBST for 30 min at RT, cells were incubated with ThS (Sigma) at 0.1 mg/ml in PBS for 10 min and rinsed 5 times with 80% Ethanol and once with PBS. Coverslips were then incubated with primary antibodies for 2 h at RT (see Table M.1). The cells were rinsed five times with PBST and subsequently incubated with the secondary antibodies at a dilution of 1/800 in PBST and DAPI at 2 μg/ml (Life technologies). The cells were washed five times in PBST, once in PBS and rinsed in MilliQ water before mounting in PVA medium with DABCO (Sigma). The cells were then examined with confocal laser-scanning microscope (LSM 700, Zeiss) and analyzed using Zen software."}, "tau biosensor cells": {"tested_on": "tau biosensor cells", "test": "Tau biosensor cell assay (FRET flow cytometry, confocal microscopy), seeding capacity", "format": "cell-based", "settings": "for Integrated FRET Density (IFD): FRET flow cytometry, 2 experimental repeats, 3 technical replicates", "description": "Based on Furman and Diamond, 2017. FRET and Flow Cytometry Assays to Measure Proteopathic Seeding Activity in Biological Samples. Caroline Smet-Nocca (ed.), Tau Protein: Methods and Protocols, Methods in Molecular Biology, vol. 1523, DOI 10.1007/978-1-4939-6598-4_23, © Springer Science+Business Media New York 2017).\nMethods: FRET flow cytometry Biosensor cell assay (Furman and Diamond, 2017) was used to assess the seeding capacity of fibrillar R2 compared to R2 monomer, and fibrillar rPHF compared to 4R2N monomer\nMethods: cells were transduced with transduction buffer, R2 monomer, rPHFs or R2 fibrils following protocol by Furman and Diamond (2017)."}, "[4]": {"settings": "neurons transfected with K18 ΔK280"}, "[5]": {"settings": "neurons transfected with WT Tau 4R2N"}},
  "data": [
    {"compound": "R2: Tau repeat peptide R2, SEQ ID No 1", "values": [
      {"measurement": "incubation time until PHFs-like fibrils observed by EM", "setting": "monomeric Tau 4R2N [1]; 10 μM R2 seeds + 10 μM Tau 4R2N, stagnant", "value": "less than 4 h"},
      {"measurement": "seeding of monomeric Tau / formation of rPHFs (EM)", "setting": "monomeric Tau 4R2N [1]", "value": "allowed the formation of rPHFs"}
    ]},
    {"compound": "CN(C)c1ccc2c(c1)Sc1cc(N(C)C)ccc1N2.CS(=O)(=O)O.CS(=O)(=O)O", "note": "[LMTX]", "values": [
      {"measurement": "inhibition potency", "setting": "monomeric Tau 4R2N [2]", "value": "high"}
    ]},
    {"compound": "O=C(NNc1nc(-c2ccc([N+](=O)[O-])cc2)cs1)c1ccc2nc[nH]c2c1", "note": "[BSc3094]", "values": [
      {"measurement": "inhibition potency", "setting": "monomeric Tau 4R2N [2]", "value": "low"}
    ]},
    {"compound": "rPHF fibrils: recombinant PHFs: Tau fibrils formed by seeding monomeric Tau with R2 seeds", "values": [
      {"measurement": "ThS signal in transfected neurons", "setting": "[3]; [4]", "value": "strong ThS signal"},
      {"measurement": "localisation of ThS signal", "setting": "[3]; [4]", "value": "intracellular"},
      {"measurement": "ThS signal in transfected neurons", "setting": "[3]; [5]", "value": "strong ThS signal"},
      {"measurement": "localisation of ThS signal", "setting": "[3]; [5]", "value": "intracellular"},
      {"measurement": "Integrated FRET Density (IFD)", "setting": "tau biosensor cells", "value": "increase in the IFD"},
      {"measurement": "aggregates in transduced biosensor cells (confocal microscopy)", "setting": "tau biosensor cells; transduction per Furman and Diamond", "value": "bright aggregated puncta"}
    ]},
    {"compound": "R2-seeded K18: K18 (SEQ ID No 6) fibrils formed by seeding with R2 seeds", "values": [
      {"measurement": "ThS signal in transfected neurons", "setting": "[3]; [4]", "value": "strong ThS signal"},
      {"measurement": "localisation of ThS signal", "setting": "[3]; [4]", "value": "intracellular"},
      {"measurement": "ThS signal in transfected neurons", "setting": "[3]; [5]", "value": "strong ThS signal"},
      {"measurement": "localisation of ThS signal", "setting": "[3]; [5]", "value": "intracellular"}
    ]},
    {"compound": "R2 extended and mutated to the SGGG motif: R2 PGGG-extended with P301S mutation (SGGG), SEQ ID No 4 (VQIINKKLDLSNVQSKCGSKDNIKHVSGGG; listed as Homo sapiens)", "values": [
      {"measurement": "seeding of monomeric Tau / formation of rPHFs (EM)", "setting": "monomeric Tau 4R2N [1]", "value": "allowed the formation of rPHFs"}
    ]},
    {"compound": "4R2N monomer: longest adult human Tau isoform, 441 amino acid, SEQ ID No 5, monomeric", "values": [
      {"measurement": "Integrated FRET Density (IFD)", "setting": "tau biosensor cells", "value": 0}
    ]}
  ]
}
